Measured values reported in US20050197336A1 (Miikana Therapeutics Corporation, priority 2004, published 2005).

Columns and labels:
[1] = tested on: Histone deacetylase (HDAC), HeLa cell nuclear extract; assay: In vitro fluorescent histone deacetylase assay (Biomol kit, HeLa cell nuclear extract); type: biochemical; conditions: compound at 100 μM; HeLa cell nuclear extract as HDAC source; substrate 50 μM; 10 min at room temperature
Description: Histone deacetylase (HDAC) activity assays were performed using the HDAC fluorescent activity assay/drug discovery kit (Biomol Research Laboratories, Plymouth Meeting, Pa.) essentially according to the manufacturer's instructions. The included HeLa cell nuclear extract, which contains a mosaic of HDAC enzymes and other nuclear factors, was used as the source of HDAC activity. The final substrate concentration in the assay mixture was 50 μM. The reaction was allowed to proceed for 10 min at room temperature before stopping the reaction. Test compounds were prepared as 20 mM stock solutions in DMSO (Molecular Biology grade, Sigma-Aldrich Co. St. Louis, Mo.) and stored at −70° C. Serial dilutions of test compounds were prepared in assay buffer immediately prior to testing. DMSO was determined in a separate trial to have no significant effect on the activity of this assay at concentrations up to 5%; the final DMSO concentration in the wells was no more than 2% and therefore DMSO effects were safely neglected. Assays were performed in white polystyrene 96-well half-area assay plates (Corning, Corning, N.Y.) and measured on a Wallace 1420 fluorescent plate reader (Wallac Oy, Turku, Finland) with an excitation wavelength of 355 nm, an emission wavelength of 460 nm, and a 1 sec signal averaging time.

MCF7 cells = assay: Whole cell cytotoxicity assay: Sulforhodamine B; type: cell-based, human; conditions: Homo sapiens; compound at 100 μM; MCF7 cell growth; 48 hours with drug; SRB staining
Description: The following procedure can be found on the Developmental Therapeutics Program NCI/NIH web site at http://dtp.nci.nih.gov/brancehes/btb/ivclsp.html.
1. Human tumor cell lines of HT29, A549 and MCF7 are grown in DMEM containing 10% fetal bovine serum and 2 mM L-glutamine. Cells are plated in a 96 well plate at a density of 5000 cells per well in 100 μL of growth medium and incubated at 37° C., 5% CO2, for 24 hours prior to the addition of experimental compounds.
2. Experimental drugs are solubilized in DMSO for a final concentration of 20 mM immediately prior to use. Drugs are further diluted in growth media for a total of nine drug concentrations and a growth control. At the 24 hour time point, one plate of cells is fixed in situ with TCA as a measurement of the cell population at time zero, or the time of drug addition.
3. The plates are further incubated with drug for an additional 48 hours.
4. The cells are fixed in situ by gently aspirating off the culture media and then adding 50 μL of ice cold 10% TCA per well and incubated at 4° C. for 60 minutes. The plates are washed with tap water five times and allowed to air dry for 5 minute.
5. 50 μL of a 0.4% (w/v) Sulforhodamine B solution in 1% (v/v) acetic acid is added per well and incubated for 30 minutes at room temperature.
6. Following staining, plates are washed five times with 1% acetic acid to remove any unbound dye and then allowed to air dry for 5 minutes.
7. Stain is solubilized with 100 μL of 10 mM Tris pH 10.5 per well and placed on an orbital rotator for 5 minutes.
8. Absorbance is read at 570 nm.

SMILES	% inhibition HDAC @ 100 μM [1]	inhibition at 100 µM (MCF7 cells)
CN(C)S(=O)(=O)N1CCN(c2ncc(C(=O)NO)s2)CC1 [Example 14, 2-[4-(N,N-dimethylsulfonyl)-piperazin-1-yl]-thiazole-5-carboxylic acid hydroxyamide]	98%	89.8%
O=C(NO)c1cnc(N2CCN(S(=O)(=O)/C=C/c3ccccc3)CC2)s1 [Example 20, 2-[4-(trans-2-phenylethanelsulfonyl)piperazin-1-yl]-thiazole-5-carboxylic acid hydroxyamide]	97%	97.9%
COCc1cccc(S(=O)(=O)N2CCN(c3ncc(C(=O)NO)s3)CC2)c1 [Example 99, 2-[4-(3-methoxymethylbenzenesulfonyl)-piperazin-1-yl]-thiazole-5-carboxylic acid hydroxyamide]	99%	96%
O=C(NO)c1cnc(N2CCN(S(=O)(=O)c3ccc4nsnc4c3)CC2)s1 [Example 46, 2-[4-(2,1,3-benzothiadiazole-5-sulfonyl)-piperazin-1-yl]-thiazole-5-carboxylic acid hydroxyamide]	98%	77.3%
CCCc1ccc(S(=O)(=O)N2CCN(c3ncc(C(=O)NO)s3)CC2)cc1 [Example 23, 2-[4-(4-n-propylphenylsulfonyl)-piperazin-1-yl]-thiazole-5-carboxylic acid hydroxyamide]	99%	96.7%
O=C(NO)c1cnc(N2CCN(S(=O)(=O)CCc3ccccc3)CC2)s1 [Example 94, 2-[4-(phenethylsulfonyl)-piperazin-1-yl]-thiazole-5-carboxylic acid hydroxyamide]	98%	90.6%
CC(=O)Nc1ccc(-c2ccc(S(=O)(=O)N3CCN(c4ncc(C(=O)NO)s4)CC3)cc2)cc1 [Example 92]	100%	88.8%
CC(C)c1ccc(S(=O)(=O)N2CCN(c3ncc(C(=O)NO)s3)CC2)cc1 [Example 16, 2-[4-(4-isopropylphenylsulfonyl)-piperazin-1-yl]-thiazole-5-carboxylic acid hydroxyamide]	100%	90.9%
Cc1cc(F)ccc1S(=O)(=O)N1CCN(c2ncc(C(=O)NO)s2)CC1 [Example 41, 2-[4-(4-fluoro-2-methylphenylsulfonyl)-piperazin-1-yl]-thiazole-5-carboxylic acid hydroxyamide]	98%	98.1%
O=C(NO)c1cnc(N2CCN(S(=O)(=O)c3ccc(-c4cccc(Cl)c4)cc3)CC2)s1 [Example 57, 2-{4-[(3′-chloro-1,1′-biphenyl-4-yl)sulfonyl]piperazin-1-yl}-1,3-thiazole-5-carboxylic acid hydroxyamide]	93%	68.6%
O=C(NO)c1cnc(N2CCN(S(=O)(=O)c3ccc(-c4ccccc4Cl)cc3)CC2)s1 [Example 58, 2-{4-[(2′-chloro-1,1′-biphenyl-4-yl)sulfonyl]piperazin-1-yl}-1,3-thiazole-5-carboxylic acid hydroxyamide]	95%	97.6%
O=C(NO)c1cnc(N2CCN(S(=O)(=O)c3ccc(Oc4ccccc4)nc3)CC2)s1 [Example 47, 2-[4-(2-phenoxypyridine-5-sulfonyl)-piperazin-1-yl]-thiazole-5-carboxylic acid hydroxyamide]	96%	90.2%
CN1CCN(Cc2cccc(-c3ccc(S(=O)(=O)N4CCN(c5ncc(C(=O)NO)s5)CC4)cc3)c2)CC1 [Example 84]	100%	96.7%
O=C(NO)c1cnc(N2CCN(S(=O)(=O)c3ccc(-c4ccc(F)cc4)cc3)CC2)s1 [Example 56, 2-{4-[(4′-fluoro-1,1′-biphenyl-4-yl)sulfonyl]piperazin-1-yl}-1,3-thiazole-5-carboxylic acid hydroxyamide]	98%	96.9%
Cc1cccc(S(=O)(=O)N2CCN(c3ncc(C(=O)NO)s3)CC2)c1 [Example 22, 2-[4-(3-methylphenylsulfonyl)-piperazin-1-yl]-thiazole-5-carboxylic acid hydroxyamide]	100%	98%
CN(C)c1ccc(S(=O)(=O)N2CCN(c3ncc(C(=O)NO)s3)CC2)cc1 [Example 29, 2-[4-(4-dimethylaminophenylsulfonyl)-piperazin-1-yl]-thiazole-5-carboxylic acid hydroxyamide]	100%	98.5%
Cn1cnc(S(=O)(=O)N2CCN(c3ncc(C(=O)NO)s3)CC2)c1 [Example 102]	99%	84%
Cc1cccc(Cl)c1S(=O)(=O)N1CCN(c2ncc(C(=O)NO)s2)CC1 [Example 38]	100%	97.8%
COc1ccc(S(=O)(=O)N2CCN(c3ncc(C(=O)NO)s3)CC2)cc1OC [Example 2, 2-[4-(3,4-dimethoxy-benzenesulfonyl)-piperazin-1-yl]-thiazole-5-carboxylic acid hydroxyamide]	99%	98.3%
O=C(NO)c1cnc(N2CCN(S(=O)(=O)c3ccc(-c4cccc(CN5CCCC5)c4)s3)CC2)s1 [Example 90, 2-(4-{5-[3-(pyrrolidin-1-ylmethyl)phenyl]thiophene-2-sulfonyl}piperazin-1-yl)-1,3-thiazole-5-carboxylic acid hydroxyamide]	99%	98%
Cc1ccc(F)cc1S(=O)(=O)N1CCN(c2ncc(C(=O)NO)s2)CC1 [Example 33, 2-[4-(2-methyl-5-fluorophenylsulfonyl)-piperazin-1-yl]-thiazole-5-carboxylic acid hydroxyamide]	96%	98.4%
O=C(NO)c1cnc(N2CCN(S(=O)(=O)c3ccccc3)CC2)s1 [Example 12, 2-[4-(benzenesulfonyl)-piperazin-1-yl]-thiazole-5-carboxylic acid hydroxyamide]	98%	95.5%
CN(C)Cc1ccc(-c2ccc(S(=O)(=O)N3CCN(c4ncc(C(=O)NO)s4)CC3)cc2)cc1 [Example 80]	99%	97.9%
O=C(NO)c1cnc(N2CCN(S(=O)(=O)c3ccc(-c4ccc(Cl)cc4)cc3)CC2)s1 [Example 62]	98%	75%
O=C(NO)c1cnc(N2CCN(S(=O)(=O)c3ccc(CN4CCOCC4)cc3)CC2)s1 [Example 106]	99%	82.3%
O=C(NO)c1cnc(N2CCN(S(=O)(=O)c3ccc(-c4ccc(CN5CCCC5)s4)cc3)CC2)s1 [Example 88]	99%	93.8%
O=C(NO)c1cnc(N2CCN(S(=O)(=O)c3ccccc3F)CC2)s1 [Example 34, 2-[4-(2-fluorophenylsulfonyl)-piperazin-1-yl]-thiazole-5-carboxylic acid hydroxyamide]	92%	97.7%
Cc1c(Cl)cccc1S(=O)(=O)N1CCN(c2ncc(C(=O)NO)s2)CC1 [Example 32, 2-[4-(3-chloro-2-methylphenylsulfonyl)-piperazin-1-yl]-thiazole-5-carboxylic acid hydroxyamide]	99%	98.1%
CCN(C)Cc1cccc(-c2ccc(S(=O)(=O)N3CCN(c4ncc(C(=O)NO)s4)CC3)cc2)c1 [Example 86]	99%	97.8%
O=C(NO)c1cnc(N2CCN(S(=O)(=O)c3ccc(N4CCCC4)cc3)CC2)s1 [Example 13, 2-[4-(4-pyrolidinylbenzenesulfonyl)-piperazin-1-yl]-thiazole-5-carboxylic acid hydroxyamide]	99%	98.9%
